Assay results: ChEMBL document CHEMBL5465560, “Selectivity Literature for EUbOPEN Chemogenomic Library” (2024)

Assays:
[1] = target: Serine/threonine-protein kinase MARK2 (Homo sapiens) (UniProt Q7KZI7); experiment: Selectivity interaction (Kinase panel (Z-LYTE Assay)) EUB0001632a MARK2; details: at 10 µM
[2] = target: Glycogen synthase kinase-3 beta (Homo sapiens, UniProt P49841); experiment: Selectivity interaction (Kinase panel (33PanQinase(R) Activity Assay)) EUB0000877a GSK3B
[3] = target: Fibroblast growth factor receptor 3 (Homo sapiens, UniProt P22607); experiment: (§1) Selectivity interaction (KinomeScan (DiscoverX)) EUB0000699a FGFR3; details: at 10 µM
[4] = test system: Fibroblast growth factor receptor 3 (Homo sapiens), P22607 [G697C]; experiment: as §1; details: at 10 µM
[5] = target: Tyrosine-protein kinase JAK1 (Homo sapiens, UniProt P23458); experiment: Selectivity interaction (ActivX KiNativ screen (kinase selectivity in THP-1 cell lysates)) EUB0000639a JAK1; type: subcellular; details: lysate, at 1 µM
[6] = target: Mitogen-activated protein kinase kinase kinase 8 (Homo sapiens, UniProt P41279); experiment: Selectivity interaction (ProQinase) EUB0000171b MAP3K8
[7] = target: T1, Mitogen-activated protein kinase kinase kinase kinase 3 (Homo sapiens) (UniProt Q8IVH8); experiment: Selectivity interaction (KinomeScan (DiscoverX)) EUB0001049a MAP4K3; details: at 1 µM
T1 sequence (whole entry): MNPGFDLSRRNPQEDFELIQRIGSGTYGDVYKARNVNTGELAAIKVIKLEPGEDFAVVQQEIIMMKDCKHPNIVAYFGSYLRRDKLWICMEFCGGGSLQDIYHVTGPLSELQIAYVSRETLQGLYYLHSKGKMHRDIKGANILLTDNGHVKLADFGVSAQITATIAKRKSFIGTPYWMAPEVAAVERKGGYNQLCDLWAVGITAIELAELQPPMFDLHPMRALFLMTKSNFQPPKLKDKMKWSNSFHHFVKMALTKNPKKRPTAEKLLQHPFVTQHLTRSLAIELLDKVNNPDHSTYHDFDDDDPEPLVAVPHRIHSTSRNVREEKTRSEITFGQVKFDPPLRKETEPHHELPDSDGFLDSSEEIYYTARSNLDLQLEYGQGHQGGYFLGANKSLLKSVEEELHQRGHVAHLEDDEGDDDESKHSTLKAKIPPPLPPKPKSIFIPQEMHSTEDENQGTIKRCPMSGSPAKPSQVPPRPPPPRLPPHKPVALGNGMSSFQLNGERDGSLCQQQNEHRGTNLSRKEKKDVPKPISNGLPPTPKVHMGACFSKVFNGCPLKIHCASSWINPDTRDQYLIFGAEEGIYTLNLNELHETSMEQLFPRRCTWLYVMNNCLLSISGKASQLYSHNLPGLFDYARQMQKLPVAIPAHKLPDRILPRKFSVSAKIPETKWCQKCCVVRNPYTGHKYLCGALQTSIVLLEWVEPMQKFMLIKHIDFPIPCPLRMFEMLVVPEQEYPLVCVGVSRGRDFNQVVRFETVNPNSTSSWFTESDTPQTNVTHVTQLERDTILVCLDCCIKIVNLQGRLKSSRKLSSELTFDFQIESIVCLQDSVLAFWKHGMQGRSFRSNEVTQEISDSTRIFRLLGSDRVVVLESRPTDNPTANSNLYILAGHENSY

[8] = target: Rho-associated protein kinase 2 (Homo sapiens, UniProt O75116); experiment: Selectivity interaction (Ambit KINOMEscan and KiNATiv profiling in Jurkat cells) EUB0000090b ROCK2; type: cell-based; details: at 1 µM
[9] = target: T2, Mitogen-activated protein kinase kinase kinase 2 (Homo sapiens) (UniProt Q9Y2U5); experiment: Selectivity interaction (Ambit KINOMEscan and KiNATiv profiling in Jurkat cells) EUB0000090b MAP3K2; type: cell-based; details: at 1 µM
T2 sequence (whole entry): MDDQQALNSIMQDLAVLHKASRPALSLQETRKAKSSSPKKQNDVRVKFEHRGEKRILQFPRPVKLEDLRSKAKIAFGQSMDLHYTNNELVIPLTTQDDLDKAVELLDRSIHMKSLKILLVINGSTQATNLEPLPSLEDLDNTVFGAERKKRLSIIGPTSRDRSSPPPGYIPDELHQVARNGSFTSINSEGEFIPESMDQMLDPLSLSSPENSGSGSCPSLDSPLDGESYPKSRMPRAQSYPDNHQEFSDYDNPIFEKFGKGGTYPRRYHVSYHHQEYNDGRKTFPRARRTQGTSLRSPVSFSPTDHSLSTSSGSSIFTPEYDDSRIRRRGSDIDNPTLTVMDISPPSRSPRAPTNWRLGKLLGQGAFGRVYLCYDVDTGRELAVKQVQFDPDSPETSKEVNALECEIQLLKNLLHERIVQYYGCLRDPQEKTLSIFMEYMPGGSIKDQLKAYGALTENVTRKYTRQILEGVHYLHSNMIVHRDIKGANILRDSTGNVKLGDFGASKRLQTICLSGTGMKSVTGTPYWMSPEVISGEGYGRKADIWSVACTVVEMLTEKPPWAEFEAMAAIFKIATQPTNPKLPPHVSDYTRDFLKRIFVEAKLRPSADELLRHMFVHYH

[10] = target: Wee1-like protein kinase (Homo sapiens) (UniProt P30291); experiment: Selectivity interaction (Kinase panel (KiNativ target engagement assay in Jurkat cells)) EUB0001635a WEE1; type: cell-based; details: at 1 µM
[11] = target: Tyrosine-protein kinase Blk (Homo sapiens) (UniProt P51451); experiment: Selectivity interaction (KinomeScan (DiscoverX)) EUB0000092b BLK; details: at 10 µM
[12] = target: T3, Serine/threonine-protein kinase ULK3 (Homo sapiens) (UniProt Q6PHR2); details: at 10 µM
T3 sequence (whole entry): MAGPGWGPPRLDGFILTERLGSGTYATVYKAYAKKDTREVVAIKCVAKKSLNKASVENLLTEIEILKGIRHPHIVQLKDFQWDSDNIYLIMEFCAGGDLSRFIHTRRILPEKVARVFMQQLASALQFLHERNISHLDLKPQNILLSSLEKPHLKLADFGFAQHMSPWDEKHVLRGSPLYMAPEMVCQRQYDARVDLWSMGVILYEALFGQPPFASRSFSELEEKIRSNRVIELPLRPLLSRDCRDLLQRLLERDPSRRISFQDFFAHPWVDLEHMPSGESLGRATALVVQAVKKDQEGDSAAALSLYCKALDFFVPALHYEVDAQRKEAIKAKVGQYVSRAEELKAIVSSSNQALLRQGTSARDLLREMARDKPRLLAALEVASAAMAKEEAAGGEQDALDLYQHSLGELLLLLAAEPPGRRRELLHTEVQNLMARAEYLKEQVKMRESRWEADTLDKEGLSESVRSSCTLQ

Sequence of Mitogen-activated protein kinase kinase kinase 8 (P41279 whole entry): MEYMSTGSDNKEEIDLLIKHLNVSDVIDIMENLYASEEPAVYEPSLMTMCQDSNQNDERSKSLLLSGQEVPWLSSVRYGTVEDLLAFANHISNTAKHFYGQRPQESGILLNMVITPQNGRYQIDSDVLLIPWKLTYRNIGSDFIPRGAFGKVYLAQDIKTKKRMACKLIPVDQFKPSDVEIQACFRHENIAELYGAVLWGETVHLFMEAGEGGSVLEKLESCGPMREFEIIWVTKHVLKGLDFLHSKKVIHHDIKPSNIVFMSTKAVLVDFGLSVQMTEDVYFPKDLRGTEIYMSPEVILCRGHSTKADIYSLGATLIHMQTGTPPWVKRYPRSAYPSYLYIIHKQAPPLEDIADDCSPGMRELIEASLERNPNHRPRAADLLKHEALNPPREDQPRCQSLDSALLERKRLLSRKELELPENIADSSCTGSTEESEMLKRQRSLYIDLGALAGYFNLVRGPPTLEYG
Sequence of Rho-associated protein kinase 2 (O75116 whole entry, looked up): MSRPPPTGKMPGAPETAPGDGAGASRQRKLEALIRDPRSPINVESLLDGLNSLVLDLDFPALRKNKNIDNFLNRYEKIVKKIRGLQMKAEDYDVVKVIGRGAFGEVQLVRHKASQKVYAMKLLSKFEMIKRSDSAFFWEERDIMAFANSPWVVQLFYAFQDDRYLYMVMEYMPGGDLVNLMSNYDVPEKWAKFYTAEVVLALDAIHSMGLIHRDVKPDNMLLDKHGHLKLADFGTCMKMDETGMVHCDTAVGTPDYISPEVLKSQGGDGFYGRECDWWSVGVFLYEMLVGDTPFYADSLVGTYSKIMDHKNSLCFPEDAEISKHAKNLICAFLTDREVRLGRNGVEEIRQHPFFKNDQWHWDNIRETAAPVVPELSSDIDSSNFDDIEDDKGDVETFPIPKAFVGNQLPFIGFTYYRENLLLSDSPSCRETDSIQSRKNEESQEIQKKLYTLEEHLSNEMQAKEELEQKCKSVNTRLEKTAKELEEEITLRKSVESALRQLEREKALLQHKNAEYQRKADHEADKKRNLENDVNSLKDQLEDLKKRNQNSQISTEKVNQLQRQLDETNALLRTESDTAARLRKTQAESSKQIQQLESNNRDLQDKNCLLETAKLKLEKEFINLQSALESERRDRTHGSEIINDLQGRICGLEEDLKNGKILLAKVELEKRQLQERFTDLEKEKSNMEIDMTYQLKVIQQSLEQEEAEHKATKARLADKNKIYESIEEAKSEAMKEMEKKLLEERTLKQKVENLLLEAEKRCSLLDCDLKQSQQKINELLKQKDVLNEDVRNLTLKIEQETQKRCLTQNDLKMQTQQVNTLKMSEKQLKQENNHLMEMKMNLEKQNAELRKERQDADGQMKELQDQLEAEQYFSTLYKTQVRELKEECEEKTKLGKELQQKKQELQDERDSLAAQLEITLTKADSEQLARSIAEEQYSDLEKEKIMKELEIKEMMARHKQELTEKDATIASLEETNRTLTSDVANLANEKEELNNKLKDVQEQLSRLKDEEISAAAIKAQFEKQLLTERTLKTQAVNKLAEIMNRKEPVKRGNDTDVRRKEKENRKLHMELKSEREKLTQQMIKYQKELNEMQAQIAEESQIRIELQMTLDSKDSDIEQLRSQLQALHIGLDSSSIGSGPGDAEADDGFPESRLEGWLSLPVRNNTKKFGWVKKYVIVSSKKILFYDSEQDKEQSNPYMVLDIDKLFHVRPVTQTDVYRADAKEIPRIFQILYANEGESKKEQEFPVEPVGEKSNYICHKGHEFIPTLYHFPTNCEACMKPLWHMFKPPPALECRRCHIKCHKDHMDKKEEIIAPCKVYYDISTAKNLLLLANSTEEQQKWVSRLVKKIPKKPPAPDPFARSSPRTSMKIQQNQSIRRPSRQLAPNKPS
Sequence of Tyrosine-protein kinase Blk (Homo sapiens) (P51451 2-505 limits assumed): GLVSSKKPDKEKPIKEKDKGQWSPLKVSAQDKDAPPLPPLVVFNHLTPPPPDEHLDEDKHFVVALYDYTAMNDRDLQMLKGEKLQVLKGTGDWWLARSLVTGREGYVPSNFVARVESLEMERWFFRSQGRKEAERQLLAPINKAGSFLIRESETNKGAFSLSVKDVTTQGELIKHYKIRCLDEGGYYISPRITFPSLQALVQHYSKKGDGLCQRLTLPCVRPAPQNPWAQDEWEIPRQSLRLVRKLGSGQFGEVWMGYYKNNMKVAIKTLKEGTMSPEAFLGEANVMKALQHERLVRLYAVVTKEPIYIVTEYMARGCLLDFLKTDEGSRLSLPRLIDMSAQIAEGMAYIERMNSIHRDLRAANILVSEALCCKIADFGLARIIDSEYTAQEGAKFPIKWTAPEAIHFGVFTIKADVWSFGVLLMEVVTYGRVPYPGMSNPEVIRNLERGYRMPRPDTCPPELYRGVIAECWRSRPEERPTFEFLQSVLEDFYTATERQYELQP
Sequence of Tyrosine-protein kinase JAK1 (P23458 whole entry): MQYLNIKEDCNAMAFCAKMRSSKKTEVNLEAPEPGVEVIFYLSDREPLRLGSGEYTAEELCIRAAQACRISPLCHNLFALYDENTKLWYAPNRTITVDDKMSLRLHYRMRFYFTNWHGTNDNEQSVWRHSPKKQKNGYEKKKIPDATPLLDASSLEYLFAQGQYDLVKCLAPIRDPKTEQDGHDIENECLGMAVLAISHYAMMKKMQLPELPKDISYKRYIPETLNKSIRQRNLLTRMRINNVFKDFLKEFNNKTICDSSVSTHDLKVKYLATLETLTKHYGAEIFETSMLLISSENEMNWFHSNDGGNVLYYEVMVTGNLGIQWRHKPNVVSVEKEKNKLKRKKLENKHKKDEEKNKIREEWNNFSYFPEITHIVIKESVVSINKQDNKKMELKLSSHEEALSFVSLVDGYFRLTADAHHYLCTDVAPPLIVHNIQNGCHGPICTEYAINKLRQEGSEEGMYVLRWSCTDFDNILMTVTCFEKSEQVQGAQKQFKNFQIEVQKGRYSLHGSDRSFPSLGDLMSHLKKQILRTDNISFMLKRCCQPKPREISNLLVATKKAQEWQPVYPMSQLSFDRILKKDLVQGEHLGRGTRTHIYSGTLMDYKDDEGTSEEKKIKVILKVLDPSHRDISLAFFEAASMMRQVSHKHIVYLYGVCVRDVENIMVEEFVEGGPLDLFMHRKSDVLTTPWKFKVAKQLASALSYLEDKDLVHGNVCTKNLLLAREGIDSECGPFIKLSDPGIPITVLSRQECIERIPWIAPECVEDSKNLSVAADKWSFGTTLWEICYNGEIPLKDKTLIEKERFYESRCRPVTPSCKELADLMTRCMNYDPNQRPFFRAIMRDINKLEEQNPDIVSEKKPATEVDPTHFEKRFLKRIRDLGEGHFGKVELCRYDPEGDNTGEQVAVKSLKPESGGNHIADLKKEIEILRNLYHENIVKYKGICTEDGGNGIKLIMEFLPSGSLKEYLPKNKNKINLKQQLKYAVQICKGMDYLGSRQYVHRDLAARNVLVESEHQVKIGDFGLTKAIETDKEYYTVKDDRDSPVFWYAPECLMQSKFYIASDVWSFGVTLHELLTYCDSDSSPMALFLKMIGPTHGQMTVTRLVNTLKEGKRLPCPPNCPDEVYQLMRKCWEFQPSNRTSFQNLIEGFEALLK
Sequence of Serine/threonine-protein kinase MARK2 (Homo sapiens) (Q7KZI7 whole entry): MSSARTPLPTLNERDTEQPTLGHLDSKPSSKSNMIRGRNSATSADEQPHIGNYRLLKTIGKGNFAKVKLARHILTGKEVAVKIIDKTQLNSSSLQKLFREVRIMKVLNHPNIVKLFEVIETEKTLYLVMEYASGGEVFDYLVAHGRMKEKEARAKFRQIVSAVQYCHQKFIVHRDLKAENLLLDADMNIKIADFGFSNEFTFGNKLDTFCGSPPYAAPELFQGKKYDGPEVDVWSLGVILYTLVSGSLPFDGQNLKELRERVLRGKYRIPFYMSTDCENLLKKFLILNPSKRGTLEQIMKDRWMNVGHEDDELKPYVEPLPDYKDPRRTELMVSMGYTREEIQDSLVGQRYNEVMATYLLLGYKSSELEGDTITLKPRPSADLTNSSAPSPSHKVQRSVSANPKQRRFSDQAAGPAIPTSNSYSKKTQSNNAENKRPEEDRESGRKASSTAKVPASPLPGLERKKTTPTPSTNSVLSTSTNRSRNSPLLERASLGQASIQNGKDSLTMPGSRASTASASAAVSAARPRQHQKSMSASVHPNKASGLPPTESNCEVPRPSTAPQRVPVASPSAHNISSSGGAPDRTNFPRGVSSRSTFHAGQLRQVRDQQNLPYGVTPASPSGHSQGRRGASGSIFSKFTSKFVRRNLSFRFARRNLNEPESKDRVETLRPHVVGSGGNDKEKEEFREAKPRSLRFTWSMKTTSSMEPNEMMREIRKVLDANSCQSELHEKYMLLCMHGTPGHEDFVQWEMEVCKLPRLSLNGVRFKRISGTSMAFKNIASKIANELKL
Sequence of Wee1-like protein kinase (Homo sapiens) (P30291 whole entry, looked up): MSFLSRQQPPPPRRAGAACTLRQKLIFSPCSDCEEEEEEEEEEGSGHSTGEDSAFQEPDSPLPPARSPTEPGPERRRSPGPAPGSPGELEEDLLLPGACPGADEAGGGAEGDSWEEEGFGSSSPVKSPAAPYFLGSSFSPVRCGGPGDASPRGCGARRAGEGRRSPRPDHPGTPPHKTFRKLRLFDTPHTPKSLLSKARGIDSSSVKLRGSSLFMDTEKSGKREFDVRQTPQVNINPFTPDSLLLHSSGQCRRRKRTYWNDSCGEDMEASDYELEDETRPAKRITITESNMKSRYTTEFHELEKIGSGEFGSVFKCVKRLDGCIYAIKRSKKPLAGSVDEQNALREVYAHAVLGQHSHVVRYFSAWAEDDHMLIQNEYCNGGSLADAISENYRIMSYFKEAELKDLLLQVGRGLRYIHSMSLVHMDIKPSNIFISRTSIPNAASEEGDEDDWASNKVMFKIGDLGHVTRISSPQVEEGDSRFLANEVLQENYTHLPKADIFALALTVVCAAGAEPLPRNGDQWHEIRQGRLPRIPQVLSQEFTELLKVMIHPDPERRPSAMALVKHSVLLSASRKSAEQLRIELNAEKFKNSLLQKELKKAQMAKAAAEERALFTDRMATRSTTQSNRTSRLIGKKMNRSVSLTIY

Cn1cc(-n2cnc3c(NCc4nc5cc(Cl)c(Cl)cc5[nH]4)nc(N4CCOCC4)nc32)cn1
% of control [1]: 5.56%

CCC(=O)N1CC[C@H](Nc2ncnc3c2CN(c2cnc(OC)c(C(F)(F)F)c2)CC3)C1 [LENIOLISIB]
IC50 [2]: > 10 µM

CCN(CC)CCCCNc1ncc2cc(-c3cc(OC)cc(OC)c3)c(NC(=O)NC(C)(C)C)nc2n1
% of control [3]: 0.1%
% of control [4]: 3.7%

CC[C@@H]1[C@H](F)C(=O)N[C@@H]1COc1nccc2cc(C(N)=O)c(OC)cc12 [ZIMLOVISERTIB]
% of inhibition [5]: -1.3%

C=CC(=O)Nc1cccc(C(=O)Nc2ccc(Nc3cc(-c4[nH]c(SC)nc4C)ccn3)cc2)c1
% of control ([6]; at 1 µM): 95%
% of control ([6]; at 5 µM): 103%

COc1cc(Nc2nc(C)cc(-c3cnn4nc(OC)ccc34)n2)cc(C(F)(F)F)c1
% of control [7]: 100%

CN(C)C/C=C/C(=O)Nc1ccc(C(=O)N2CCCC(Nc3ncc(Cl)c(-c4c[nH]c5ccccc45)n3)C2)cc1 (stereo not drawn)
% of control [8]: 69%
% of control [9]: 99%

C=CC(=O)Nc1ccc(C(=O)Nc2[nH]nc3c2CN(C(=O)N[C@H](CN(C)C)c2ccccc2)C3(C)C)cc1
% of engagement [10]: 24%

CCC(=O)N1CCN(c2ccc(-n3c(=O)ccc4cnc5ccc(-c6cnc7ccccc7c6)cc5c43)cc2C(F)(F)F)CC1
% of control [11]: 75%

Cc1cc([C@@H](C)Nc2ccccc2C(=O)O)c2nc(N3CCOCC3)cc(=O)n2c1 [AZD-6482]
% of control [12]: 98%
